Assays:
Format in all cases: cell-based, human
CAV1 and Cavin-1 = test: IP-WB analysis of binding of endogenous CAV1 and Cavin-1 under ROR1 silencing; settings: NCI-H1975 cell extract 24 hours after transfection
Description: (§1) Western blotting analysis and IP-WB analysis were conducted by the standard methods using an Immobilon-P filter (manufactured by Millipore Corp.) and an enhanced chemiluminescence system (manufactured by GE Healthcare Inc.). pCMVpuro-Cavin-1-WT was coexpressed with various ROR1 expression constructs such as the wild type (WT), TKΔ473-564 (TKΔ1), TK564-655 (TKΔ2), TKΔ655-746 (TKΔ3), TKΔ473-655 (TKΔ1+×2), TKΔ564-746 (TKΔ2+Δ3), and TKΔ473-746 (TKA1+Δ2+A3) to identify the binding site of ROR1 and Cavin-1. pCMVpuro-CAV1-WT was coexpressed with ROR1 expression constructs such as the wild type (WT), TKΔ473-564 (TKΔ1), TKΔ564-655 (TKΔ2), TKΔ655-746 (TKΔ3), ST1Δ748-782 (ΔST1), PΔ784-851 (ΔP), and ST2Δ853 to 876 (ΔST2) to identify the binding site of ROR1 and CAV1. For these, the cells were recovered 24 hours after transfection by Fugene6 (Promega) using COS-7 cells, and IP-WB analysis was conducted.
In addition, IP-WB analysis was conducted after suspending the cells in lysis buffer containing octyl glucoside (10 mM Tris-HCl (pH 8.0), 0.15 M NaCl, 5 mM EDTA, 1% Triton X-100, 60 mM octyl glucoside) using NCI-H1975, NCI-H358, and SK-LU-1 cell lines, which are pulmonary adenocarcinoma cell lines, to confirm the binding of ROR1 and Cavin-1, ROR1 and CAV1, or Cavin-1 and IGF-IR.

CAV1 [1] = test: Western blotting of CAV1 after siROR1 treatment in cells expressing ROR1 wild type or mutants with silent mutation; settings: three days
Description: In vitro mutagenesis was conducted using KOD-plus-DNA polymerase (Toyobo), and pCMVpuro-ROR1-WTm (siROR1) and pCMVpuro-ROR1-KDm (siROR1) including silent mutations for siROR1 were prepared. Following primer of not involving amino acid substitution was used for production.
Wild type ROR1 (ROR1-WT), wild type ROR1 with an added silent mutation for siROR1 (ROR1-WTm), or kinase activity-deficient ROR1 with a silent mutation for siROR1 added (ROR1-KDm) were transfected into NCI-H1975 cells. Selection by puromycin (1.5 μg/mL) was performed after 24 hours, and the single clones were collected, and stable clones that expressed the respective ROR1 (constitutive ROR1-expressing cell lines) were prepared. These stable clones were then treated by siControl or siROR1, and the cells were recovered after three days and Western blotting analysis was conducted.
In vitro mutagenesis was conducted using KOD-plus-DNA polymerase (Toyobo), and pCMVpuro-ROR1-WTm (siROR1) and pCMVpuro-ROR1-TKA2+TKA3m (siROR1) including silent mutations for siROR1 were prepared. Following primer of not involving amino acid substitution was used for production.
(§2) Wild type ROR1 (ROR1-WT), wild type ROR1 with an added silent mutation for siROR1 (ROR1-WTm), or cavin-1 binding region-deficient ROR1 with an added silent mutation for siROR1 (ROR1-TKA2+TKA3m) were transfected into PC-9 cells. Selection by puromycin (1.0 μg/mL) was performed after 24 hours, and the cells were recovered as bulk clones and reseeded in 6-well plates. The cells were then treated by siControl or siROR1, recovered after three days, and Western blotting analysis was conducted.
In vitro mutagenesis was conducted using KOD-plus-DNA polymerase (Toyobo), and pCMVpuro-ROR1-WTm (siROR1) and pCMVpuro-ROR1-AS/T2m (siROR1) including silent mutations for siROR1 were prepared. Following primer of not involving amino acid substitution was used for production.
as §2, with “CAV1” for “cavin-1”, “(ROR1-ΔS/T2m)” for “(ROR1-TKA2+TKA3m)”

ROR1 = test: Western blotting of changes over time in ROR1 expression after siROR1 transfection; settings: NCI-H1975; 24 hours after transfection
Description: as §1
(§3) Transfection of the siRNA (20 nM each) was conducted in accordance with the manufacturer's instruction manual using lipofectamine RNAiMAX (manufactured by Invitrogen). […] Cells were also recovered 120 hours after transfection for analysis by colorimetry to measure cell proliferation.

[2] = test system: caveolae of NCI-H1975 cells; test: Electron microscope analysis of caveolae by rapid freezing/freeze-fracture replica labeling; settings: 72 hours after transfection, n=18 regions
Description: 20 μm thick gold foil was placed in a culture dish, and NCI-H1975 cells, which are a pulmonary adenocarcinoma cell line, were cultured on top. Transfection of siControl or siROR1 was conducted. Rapid freezing was conducted using a high-pressure freezing machine (Leica Inc.) 72 hours after transfection. Freeze-fracture replicas were prepared using a BAF400 apparatus (Baltec Co.), and labeled by mouse anti-CAV2 antibody (BD Transduction Co.) after treatment by SDS. A second antibody reaction was then conducted using 10 nm gold colloid-conjugated goat anti-mouse IgG antibody (British Biocell International Co.), and the cells were examined by a JEM-1011 electron microscope. For caveolae distribution density measurement, randomly selected regions under the electron microscope (18 random cell membrane regions of 17-50 μm) were measured, and the cell membrane region of each electron micrograph was measured using ImageJ.

CAV1 [3] = test: Western blotting of CAV1 expression after siRNA transfection in pulmonary adenocarcinoma cell lines
Description: as §1, §3

Substance: siROR1: RNA oligomer for RNAi against human ROR1, 5′-CAGCAAUGGAUGGAAUUUCAA-3′ (SEQ ID No: 13) (listed as RNA, further chemistry not given here)
- binding of endogenous CAV1 and Cavin-1 (IP-WB) (CAV1 and Cavin-1): decreases the binding
- CAV1 expression (Western blot) (CAV1 [1]; NCI-H1975 stable clones expressing ROR1-KDm (kinase activity-deficient, silent mutation)): downregulation of CAV1 was not seen
- CAV1 expression (Western blot) (CAV1 [1]; NCI-H1975 stable clones expressing ROR1-WT): downregulation of CAV1
- CAV1 expression (Western blot) (CAV1 [1]; NCI-H1975 stable clones expressing ROR1-WTm (silent mutation against siROR1)): downregulation of CAV1 was not seen
- CAV1 expression (Western blot) (CAV1 [1]; PC-9 transfected with ROR1-AS/T2m (CAV1 binding region deleted, silent mutation)): expression of CAV1 was lowered
- CAV1 expression (Western blot) (CAV1 [1]; PC-9 transfected with ROR1-TKA2+TKA3m (cavin-1 binding region deleted, silent mutation)): expression of CAV1 was lowered
- ROR1 expression (Western blot) (ROR1): lowered the expression of ROR1
- number of normal caveolae in random regions on the cell membrane [2]: decreases significantly
- CAV1 expression (Western blot) (CAV1 [3]; NCI-H441, NCI-H358 and PC-9, siRNA 20 nM, 72 hours after transfection): downregulation of CAV1 was found
- CAV1 expression (Western blot) (CAV1 [3]; NCI-H1975, after 48 hours): downregulation of CAV1 was seen

From patent publication US20170315126A1, “METHOD FOR SCREENING COMPOUND SPECIFICALLY SUPPRESSING FORMATION OF CAVEOLAE OF CANCER CELLS, SCREENING KIT, VECTOR AND TRANSFORMANT TO BE USED IN KIT, AND METHOD FOR SELECTING PATIENT FOR WHOM MOLECULARLY TARGETED DRUG IS INDICATED” (NATIONAL UNIVERSITY CORPORATION NAGOYA INSTITUTE OF …, priority 2014, published 2017)
